Test results reported in US20090234162A1, “Radioactive Halogen-Labeled Phenyloxyaniline Derivatives” (Taisho Pharmaceutical Co., Ltd., priority 2005, published 2009).

Legend:
[1] = molecular target: peripheral benzodiazepine receptor (PBR) (Homo sapiens, UniProt P30536); settings: background art, Patent Documents 1 and 2; cited from earlier work
intracerebral PBR = molecular target: T1, intracerebral PBR (Homo sapiens, UniProt P30536); settings: 11C-labeled ligand, PET, living human brain; cited from earlier work
T1 construct: In imaging the intracerebral PBR distribution of a living human brain with positron emission tomograph (PET); host or cells: living human brain (PET)

[2] = molecular target: T2, peripheral benzodiazepine receptors (Rattus norvegicus, UniProt P16257); test: Ex vivo autoradiography of rat brain; format: in vivo
T2 construct: from tissue
Description: FIGS. 1 and 2 show cerebral ex vivo autoradiograms taken in 30 minutes after [^131I]2IDAA1106 was administered to a rat. […] In particular, radioactivity levels in the olfactory bulb, choroid plexus and cerebellum decreased remarkably and were equal to or less than 20% of FIG. 1.

[3] = rat, brain 30 minutes after administration, FIG. 1

peripheral benzodiazepine receptor (PBR), sequence (P30536 whole entry, species assumed): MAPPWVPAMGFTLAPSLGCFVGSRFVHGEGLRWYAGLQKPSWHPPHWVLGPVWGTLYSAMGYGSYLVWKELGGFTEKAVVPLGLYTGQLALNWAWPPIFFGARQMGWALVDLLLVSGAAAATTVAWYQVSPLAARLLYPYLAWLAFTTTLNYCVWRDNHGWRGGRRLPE
T1 sequence (P30536 whole entry): as the sequence (P30536 whole entry, species assumed) above

Row | Structure (SMILES) | affinity as PBR ligand [1] | selectivity as PBR ligand [1] | other results
1 | COc1ccc(OC)c(CN(C(C)=O)c2cc(F)ccc2Oc2ccccc2)c1 [DAA1106, N-(2,5-dimethoxybenzyl)-N-(5-fluoro-2-phenoxyphenyl)acetamide] | strong affinity | high selectivity | 
2 | COc1ccc(OCCF)c(CN(C(C)=O)c2cc(F)ccc2Oc2ccccc2)c1 [FEDAA1106, N-[2-(2-fluoro)ethyl-5-methoxybenzyl]-N-(5-fluoro-2-phenoxyphenyl)acetamide] | strong affinity | high selectivity | 
3 | COc1ccc(CF)c(CN(C(C)=O)c2cc(F)ccc2Oc2ccccc2)c1 [FMDAA1106, N-(2-fluoromethyl-5-methoxybenzyl)-N-(5-fluoro-2-phenoxyphenyl)acetamide] | strong affinity | high selectivity | 
4 | CCC(C)N(C)C(=O)c1cc2ccccc2c(-c2ccccc2Cl)n1 (stereo not drawn) [PK 11195, N-methyl-N-(1-methylpropyl)-1-(2-chlorophenyl)-isoquinoline-3-carboxamide] |  |  | accumulation in the brain (intracerebral PBR): extremely low accumulation in the brain
5 | COc1ccc([131I])c(CN(C(C)=O)c2cc(F)ccc2Oc2ccccc2)c1 [[^131I]2IDAA1106, N-(2-[^131I]iodo-5-methoxybenzyl)-N-(5-fluoro-2-phenoxyphenyl)acetamide] |  |  | specificity as radioligand ([2]; conclusion from distribution profile and DAA1106 blocking): specific to peripheral benzodiazepine receptors; radioactivity levels in the olfactory bulb, choroid plexus and cerebellum relative to FIG. 1 ([2]; rat, 30 minutes, co-administration of DAA1106, FIG. 2 as % of FIG. 1): ≤ 20%; radioactivity distribution in the whole brain when DAA1106 administered at the same time ([2]; rat, 30 minutes, co-administration of DAA1106, FIG. 2 versus FIG. 1): decreased in the whole brain; brain permeability characteristics [2, 3]: relatively high brain permeability characteristics; radioactivity distribution at the olfactory bulb, choroid plexus and cerebellum [2, 3]: relatively high radioactivity distribution
